Key:
Type in all cases: in vivo
[1] = test system: mechanical hyperalgesia in the Seltzer model of neuropathic pain in the rat; test: Seltzer model, development of mechanical hyperalgesia, repeated administration of Compound A
Text: (§1) Two animal models of chronic neuropathic pain may be used that involve some form of peripheral nerve damage. In the Seltzer model (Seltzer et al. (1990) Pain 43: 205-218) rats are anaesthetised and a small incision made mid-way up one thigh (usually the left) to expose the sciatic nerve. The nerve is carefully cleared of surrounding connective tissues at a site near the trochanter just distal to the point at which the posterior biceps semitendinosus nerve branches off the common sciatic nerve. A 7-0 silk suture is inserted into the nerve with a ⅜ curved, reversed-cutting mini-needle, and tightly ligated so that the dorsal ⅓ to ½ of the nerve thickness is held within the ligature. The muscle and skin are closed with sutures and clips and the wound dusted with antibiotic powder. In sham animals the sciatic nerve is exposed but not ligated and the wound closed as in nonsham animals.
(§2) In all chronic pain models (inflammatory and neuropathic) mechanical hyperalgesia is assessed by measuring paw withdrawal thresholds of both hindpaws to an increasing pressure stimulus using an Analgesymeter (Ugo-Basile, Milan). Mechanical allodynia is assessed by measuring withdrawal thresholds to non-noxious mechanical stimuli applied with von Frey hairs to the plantar surface of both hindpaws. Thermal hyperalgesia is assessed by measuring withdrawal latencies to a noxious thermal stimulus applied to the underside of each hindpaw. With all models, mechanical hyperalgesia and allodynia and thermal hyperalgesia develop within 1-3 days following surgery and persist for at least 50 days. For the assays described herein, drugs may be applied before and after surgery to assess their effect on the development of hyperalgesia, particularly approximately 14 days following surgery, to determine their ability to reverse established hyperalgesia.
(§3) The percentage reversal of hyperalgesia is calculated as follows: [formula] In the experiments disclosed herein, Wistar rats (male) are employed in pain models described above. Rats weigh approximately 120-140 grams at the time of surgery. All surgery is performed under enflurane/O2 inhalation anaesthesia. In all cases the wound is closed after the procedure and the animal allowed to recover. In all pain models employed, after a few days in all but the sham operated animals, a marked mechanical and thermal hyperalgesia and allodynia develops in which there is a lowering of pain threshold and an enhanced reflex withdrawal response of the hind-paw to touch, pressure or thermal stimuli. […] In the majority of animals the toes of the affected hind paw are held together and the foot turned slightly to one side; in some rats the toes are also curled under. The gait of the ligated rats varies, but limping is uncommon. […] The rats tend to be very sensitive to touch and may vocalise. Otherwise the general health an condition of the rats is good.
(§4) The effect of Compound A on mechanical hyperalgesia and allodynia is examined in the Seltzer model of neuropathic pain in the rat (Seltzer et al, 1990) as described above. With this model mechanical hyperalgesia and allodynia is induced in the ipsilateral (ligated) hindpaw approximately 1 day following surgery and persists for some weeks. Mechanical hyperalgesia is assessed by measuring paw withdrawal thresholds of both hindpaws to an increasing pressure stimulus using an Analgesymeter (Ugo-Basile, Milan). Mechanical allodynia is assessed by measuring withdrawal thresholds to non-noxious mechanical stimuli applied with von Frey hairs to the plantar surface of both hindpaws.
Experimental Protocol: The effect of Compound A on the development of mechanical hyperalgesia is tested by administering the compound or vehicle (20% cremaphor/water) orally twice daily for 7 days starting on the day of surgery. Prior to surgery paw withdrawal thresholds of ipsilateral (ligated) and contralateral (non-ligated) paws are approximately 100 g. […]

[2] = test system: mechanical hyperalgesia in the Seltzer model of neuropathic pain in the rat; test: Seltzer model, perioperative administration of Compound A on neuropathic hyperalgesia; details: for Paw withdrawal threshold: ipsilateral paw
Text: as §1, §2, §3, §4
Compound A also affects the development of hyperalgesia following peri-operative dosing. […] The effect of the two doses of Compound A lasted for approximately 7 days by which time the degreee of hyperalgesia is similar to that seen in vehicle treated animals.
All animals received administration of vehicle or compound 1 h prior to surgery (pre) and 5 h following surgery (post).

[3] = test system: mechanical hyperalgesia in the Seltzer model of neuropathic pain in the rat; test: Seltzer model, established neuropathic hyperalgesia, repeated administration of Compound A; details: 3 mg/kg orally twice daily for 10 days starting 7 days after ligation
Text: as §1, §2, §3, §4
Inhibition of MMP7 may also reduce established mechanical hyperalgesia. 7 days following ligation ipsilateral paw withdrawal thresholds are reduced to approximately 65 g compared to contralteral readings of approximately 100 g, indicating mechanical hyperalgesia. Compound A (3 and 30 mg/kg) or vehicle (20% cremaphor/water) is then administered orally twice daily for 10 days. […]

## CC[C@H](C(=O)NO)[C@H](C(=O)N1CCCC[C@H]1C(=O)NC(C)C)c1ccc(Cl)cc1 [Compound A, (S)-1-[(2S,3S)-2-(4-Chloro-phenyl)-3-hydroxycarbamoyl-pentanoyl]-piperidine-2-carboxylic acid isopropylamide]
[1]; 3 days after the end of compound administration
  ipsilateral withdrawal thresholds versus vehicle treated animals: remain elevated above those of vehicle treated animals
[1]; contralateral (non-ligated) paw, following surgery, vehicle or compound administration, throughout the experiment
  withdrawal thresholds of contralateral paws: do not significantly change
[1]; ipsilateral paw, 3 mg/kg orally twice daily for 7 days from day of surgery, day 1 of treatment
  Paw withdrawal threshold: 72.5 ± 2.8 g
[1]; ipsilateral paw, 3 mg/kg orally twice daily for 7 days from day of surgery, day 2 of treatment
  Paw withdrawal threshold: 76.7 ± 3.1 g
[1]; ipsilateral paw, 3 mg/kg orally twice daily for 7 days from day of surgery, day 3 of treatment
  Paw withdrawal threshold: 78.3 ± 2.5 g
[1]; ipsilateral paw, 3 mg/kg orally twice daily for 7 days from day of surgery, day 4 of treatment
  Paw withdrawal threshold: 83.3 ± 2.8 g
[1]; ipsilateral paw, 3 mg/kg orally twice daily for 7 days from day of surgery, day 5 of treatment
  Paw withdrawal threshold: 83.3 ± 5.7 g
[1]; ipsilateral paw, 3 mg/kg orally twice daily for 7 days from day of surgery, day 7 of treatment
  Paw withdrawal threshold: 86.7 ± 4.8 g
[1]; ipsilateral paw, 3 mg/kg orally twice daily for 7 days from day of surgery, day 10 (3 days after end of dosing)
  Paw withdrawal threshold: 90.0 ± 4.7 g
[1]; ipsilateral paw, 3 mg/kg orally twice daily for 7 days from day of surgery, pre-surgery (baseline)
  Paw withdrawal threshold: 100.8 ± 2.4 g
[1]; ipsilateral paw, 30 mg/kg orally twice daily for 7 days from day of surgery, day 1 of treatment
  Paw withdrawal threshold: 78.3 ± 2.8 g
[1]; ipsilateral paw, 30 mg/kg orally twice daily for 7 days from day of surgery, day 2 of treatment
  Paw withdrawal threshold: 80.8 ± 4.0 g
[1]; ipsilateral paw, 30 mg/kg orally twice daily for 7 days from day of surgery, day 3 of treatment
  Paw withdrawal threshold: 83.3 ± 4.9 g
[1]; ipsilateral paw, 30 mg/kg orally twice daily for 7 days from day of surgery, day 4 of treatment
  Paw withdrawal threshold: 85.8 ± 4.4 g
[1]; ipsilateral paw, 30 mg/kg orally twice daily for 7 days from day of surgery, day 5 of treatment
  Paw withdrawal threshold: 83.2 ± 3.1 g
[1]; ipsilateral paw, 30 mg/kg orally twice daily for 7 days from day of surgery, day 7 of treatment
  Paw withdrawal threshold: 82.0 ± 5.8 g
[1]; ipsilateral paw, 30 mg/kg orally twice daily for 7 days from day of surgery, day 10 (3 days after end of dosing)
  Paw withdrawal threshold: 86.0 ± 4.0 g
[1]; ipsilateral paw, 30 mg/kg orally twice daily for 7 days from day of surgery, pre-surgery (baseline)
  Paw withdrawal threshold: 97.5 ± 2.1 g
[1]; ipsilateral paw, orally twice daily for 7 days from day of surgery, vehicle approximately 60 g
  withdrawal thresholds after repeated dosing: 80 to 90 g
[2]; 30 mg/kg oral 1 h prior to and 5 h following surgery
  duration of the effect of the two doses: approximately 7 days
[2]; 30 mg/kg oral 1 h prior to surgery and again 5 h following surgery
  degree of hyperalgesia (ipsilateral paw withdrawal thresholds versus vehicle): significant reduction in the degree of hyperalgesia
[2]; Compound A 30 mg/kg oral 1 h pre surgery + Compound A 5 h post, day 1 of study
  Paw withdrawal threshold: 79.2 ± 2.4 g
[2]; Compound A 30 mg/kg oral 1 h pre surgery + Compound A 5 h post, day 2 of study
  Paw withdrawal threshold: 81.7 ± 2.1 g
[2]; Compound A 30 mg/kg oral 1 h pre surgery + Compound A 5 h post, day 3 of study
  Paw withdrawal threshold: 80.0 ± 2.2 g
[2]; Compound A 30 mg/kg oral 1 h pre surgery + Compound A 5 h post, day 4 of study
  Paw withdrawal threshold: 77.5 ± 1.1 g
[2]; Compound A 30 mg/kg oral 1 h pre surgery + Compound A 5 h post, day 6 of study
  Paw withdrawal threshold: 73.3 ± 3.1 g
[2]; Compound A 30 mg/kg oral 1 h pre surgery + Compound A 5 h post, day 7 of study
  Paw withdrawal threshold: 70.8 ± 2.4 g
[2]; Compound A 30 mg/kg oral 1 h pre surgery + Compound A 5 h post, pre-surgery (baseline)
  Paw withdrawal threshold: 101.7 ± 1.1 g
[2]; Compound A 30 mg/kg oral 1 h pre surgery + vehicle 5 h post, day 1 of study
  Paw withdrawal threshold: 75.8 ± 2.4 g
[2]; Compound A 30 mg/kg oral 1 h pre surgery + vehicle 5 h post, day 2 of study
  Paw withdrawal threshold: 69.2 ± 3.7 g
[2]; Compound A 30 mg/kg oral 1 h pre surgery + vehicle 5 h post, day 3 of study
  Paw withdrawal threshold: 70.8 ± 2.0 g
[2]; Compound A 30 mg/kg oral 1 h pre surgery + vehicle 5 h post, day 4 of study
  Paw withdrawal threshold: 67.5 ± 1.7 g
[2]; Compound A 30 mg/kg oral 1 h pre surgery + vehicle 5 h post, day 6 of study
  Paw withdrawal threshold: 70.0 ± 2.2 g
[2]; Compound A 30 mg/kg oral 1 h pre surgery + vehicle 5 h post, day 7 of study
  Paw withdrawal threshold: 65.0 ± 3.2 g
[2]; Compound A 30 mg/kg oral 1 h pre surgery + vehicle 5 h post, pre-surgery (baseline)
  Paw withdrawal threshold: 105.0 ± 1.3 g
[2]; single dose 1 h prior to surgery
  inhibition of hyperalgesia: significant inhibition of hyperalgesia only at 1 day post surgery
[3]; day 1 of study
  ipsilateral paw withdrawal threshold: 62.5 ± 2.1 g
[3]; day 2 of study
  ipsilateral paw withdrawal threshold: 68.3 ± 1.1 g

— US20060178323A1, “Methods for the treatment of chronic pain and compositions therefor” (priority 2002, published 2006)
